In one data set the target is cMET (Homo sapiens (Human), UniProt P08581). In words: cMET in vitro kinase HTRF assay. It counts as biochemical. As to conditions: mean ± S.D. As to the method:
(§1) Inhibition of the FLT3 kinase activity was measured using homogeneous, time-resolved fluorescence (HTRF) assays. Recombinant proteins containing the FLT3 kinase domain were purchased from Carna biosciences (Japan). Optimal enzyme, ATP, and substrate concentrations were established using the HTRF KinEASE kit (Cisbio, France) according to the manufacturer's instructions. The FLT3 enzymes were mixed in sequence with diluted compounds and peptide substrates in a kinase reaction buffer (50 mM HEPES (pH 7.0), 500 μM ATP, 0.1 mM sodium orthovanadate, 5 mM MgCl2, 1 mM DTT, 0.01% bovine serum albumin (BSA), and 0.02% NaN3). After the addition of the reagents for detection, the TR-FRET signal was measured using a Victor multilabel reader (Perkin Elmer, Waltham, Mass., USA). The IC50 was calculated by nonlinear regression using Prism version 5.01 (GraphPad). JAK2, JAK3, cMET, and RET in vitro kinase assays were also performed using the HTRF assay.

The next data set concerns MV4;11 xenograft. In words: MV4;11 mouse tumor xenograft, intravenous LDD1937. It counts as in vivo. As to the method: The drug or the control PBS was injected daily for a duration of 21 days.
For a further data set, the system named is MV4;11 cells. In words: Cell viability, EZ-Cytox tetrazolium assay, MV4;11. Format: cell-based, human. As for the experimental part:
The cultured cells were incubated at 3° C. with 5% CO2.
(§2) Cell viability was assessed by a tetrazolium-based assay using the EZ-Cytox Cell Viability Assay kit (DaeilLab, Korea). Briefly, 2,000 to 15,000 cells were plated in 96-well plates in 100 μl of medium. The next day, the cells were treated with compounds together with dimethyl sulfoxide (DMSO) as a negative control. Three days (72 hours) after the drug addition, 15 μl of the EZ-Cytox kit reagent was added to each well of the 96-well plate and then incubated at 37° C. in a humidified CO2 incubator for 4 hours. After incubation, the optical density (OD) was measured at a wavelength of 450 nm using a Victor multilabel reader (Perkin Elmer, Waltham, Mass., USA).

The subject of a further data set is PC-3 cells. In words: Cytotoxicity assay, PC-3. Format: cell-based. The conditions noted are these: Homo sapiens, mean ± S.D. As for the experimental part:
MDA-MB-231 (metastatic breast cancer, ATCC HTB-26), Jurkat (human acute T lymphocytic leukemia, ATCC TIB-152), and K-562 (human chronic myelogenous leukemia, ATCC CCL-243) cells were cultured in RPMI-1640 (Sigma Co.). MCF7 (human breast adenocarcinoma, ATCC HTB-22) and PC-3 (human prostate adenocarcinoma, ATCC CRL-1435) cells were cultured in DMEM (Sigma Co.) medium supplemented with 10% fetal bovine serum and 1% penicillin/streptomycin. The cultured cells were incubated at […] with 5% CO2. Cell viability was assessed by a tetrazolium-based assay using the EZ-Cytox Cell Viability Assay kit (DaeilLab, Korea). […] The next day, the cells were treated with compounds together with dimethyl sulfoxide (DMSO) as a negative control. Three days (72 hours) after the drug addition, 15 μl of the EZ-Cytox kit reagent was added to each well of the 96-well plate and then incubated at 37° C. in a humidified CO2 incubator for 4 hours. After incubation, the optical density (OD) was measured at a wavelength of 450 nm using a Victor multilabel reader (Perkin Elmer, Waltham, Mass., USA). The IC50 was calculated by nonlinear regression using Prism version 5.01 (GraphPad, La Jolla, Calif., USA).

In the next data set the target is FLT3 kinase (Homo sapiens (Human), UniProt P36888). In words: In vitro FLT3 kinase HTRF assay (Example 2). Format: biochemical. As to conditions: FLT3 vs JAK2, JAK3, cMET, IRAK4. As for the experimental part:
as §1, with “The IC50 was calculated by nonlinear regression using Prism version 5.01 (GraphPad).” left out

The next data set concerns MDA-MB-231. In words: Cell viability, EZ-Cytox tetrazolium assay, MDA-MB-231. It counts as cell-based, human. As to conditions: Homo sapiens, MDA-MB-231; 72 hours. As for the experimental part:
MDA-MB-231 (metastatic breast cancer, ATCC HTB-26), Jurkat (human acute T lymphocytic leukemia, ATCC TIB-152), and K-562 (human chronic myelogenous leukemia, ATCC CCL-243) cells were cultured in RPMI-1640 (Sigma Co.). MCF7 (human breast adenocarcinoma, ATCC HTB-22) and PC-3 (human prostate adenocarcinoma, ATCC CRL-1435) cells were cultured in DMEM (Sigma Co.) medium supplemented with 10% fetal bovine serum and 1% penicillin/streptomycin. The cultured cells were incubated at 3° C. with 5% CO2.
as §2, with “USA). The IC50 was calculated by nonlinear regression using Prism version 5.01 (GraphPad, La Jolla, Calif., USA).” for “USA).”

A further data set has as its system MV4-11 xenograft. In words: MV4-11 mouse tumor xenograft, oral administration.
The subject of another data set is MV4-11 cells. In words: Cytotoxicity WST assay, MV4-11 (Example 3). It counts as cell-based, human. As to conditions: for GI50: Homo sapiens, MV4-11, WST assay. As to the method: Test 96-well plates were incubated at 37° C. with 5% CO2 for 72 h. After 72 h incubation, 10 μL of the EZ-Cytox kit reagent from EZ-cytox Cell viability assay kit (DaeilLab, Korea) were added to each well of the 96-well plate and then incubated at 37° C. with 5% CO2 for 3 h. […] The IC50 values were calculated with nonlinear regression analysis using OriginPro 9.1 software (OriginLab, Northampton, Mass.). […] The GI50 values were obtained in triplicate and the error bars represent the standard error of the mean.

The next data set concerns PC3 (prostate cancer). In words: WST anti-proliferative assay, PC3. As to conditions: Homo sapiens, read-out: % inhibition at 1 μM, PC3. It counts as cell-based. As to the method:
(§3) (Table 6) Compound 33 (LDD-2635) was tested at 8 concentrations to measure their anti-proliferative effects on various human cancer cell lines using WST assay. The GI50 values were obtained in triplicate and the error bars represent the standard error of the mean.

For another data set, the system named is MOLM14 Wild type. In words: Cell proliferation MTT assay, MOLM14 wild type. Format: cell-based. As to conditions: Homo sapiens, MOLM-14.
A further data set deals with MOLM14 FLT3-ITD-D835Y. In words: Cell proliferation MTT assay, MOLM14-ITD-D835Y. Format: cell-based, human. The conditions noted are these: Homo sapiens, MOLM-14.
A further data set deals with HepG2 (liver cancer). In words: WST anti-proliferative assay, HepG2. Format: cell-based. The conditions noted are these: Homo sapiens. As for the experimental part:
as §3

For a further data set, the system named is A549 (lung cancer). In words: WST anti-proliferative assay, A549. As to conditions: Homo sapiens, A549, read-out: % inhibition at 1 μM, A549. It counts as cell-based. As to the method: as §3
For another data set, the system named is SK-OV-3 (ovarian cancer). In words: WST anti-proliferative assay, SK-OV-3. It counts as cell-based. The conditions noted are these: Homo sapiens, SK-OV-3, read-out: % inhibition at 1 μM, SK-OV-3. As to the method: as §3
The test system of a further data set is MDA-MB-231 xenograft. In words: MDA-MB-231 mouse tumor xenograft. Format: in vivo. As to conditions: 20 mg/kg/p.o/day, 4 weeks. As for the experimental part: 6-weeks-old Balb/c nu/nu mice (female) were purchased from Central Lab. Animal Inc. to be used. […] The candidate substances LDD-2614 (Compound 21), 2633 (Compound 28), 2634 (Compound 34), 2635 (Compound 33) were administered at 20 mg/kg/p.o/day, and doxorubicin, which was a control, was administered at 5 mg/kg/i.p (once a week) for 4 weeks.

The next data set relates to HCT-116 (colon cancer). In words: WST anti-proliferative assay, HCT-116. As to conditions: Homo sapiens, HCT-116, read-out: % inhibition at 1 μM, HCT-116. It counts as cell-based. As to the method:
as §3

The subject of data set [1] is MOLM14 FLT3-ITD (MOLM14-ITD). In words: Cell proliferation MTT assay, MOLM14-ITD. Format: cell-based. The conditions noted are these: Homo sapiens, MOLM-14.
Experimental: (§4) MOLM14 were purchased from the ATCC and the cells were maintained in RPMI medium (Hyclone) with 10% Fetal bovine serum (Gibco) and 1% penicillin/streptomycin.
Viral particles were infected to MOLM14 cells and 48 h after infection, infected cells were selected with puromycin (1 μg/mL).
Setting [2] is: Homo sapiens, MV4-11, 72 hours, read-out: GI50(nM) MV4;11.

Like-named read-outs stand apart in the source and are kept apart here.

Sequence of FLT3 kinase (P36888 610-943): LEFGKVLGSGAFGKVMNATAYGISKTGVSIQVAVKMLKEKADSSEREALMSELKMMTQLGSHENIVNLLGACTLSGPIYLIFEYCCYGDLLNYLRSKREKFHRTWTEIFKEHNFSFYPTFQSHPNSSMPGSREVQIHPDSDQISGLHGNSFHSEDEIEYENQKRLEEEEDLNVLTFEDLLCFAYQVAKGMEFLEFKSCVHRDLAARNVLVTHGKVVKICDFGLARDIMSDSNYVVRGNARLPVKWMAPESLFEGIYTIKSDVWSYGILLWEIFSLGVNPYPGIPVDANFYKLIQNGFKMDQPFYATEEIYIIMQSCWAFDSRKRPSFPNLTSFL
Sequence of cMET (P08581 25-1390): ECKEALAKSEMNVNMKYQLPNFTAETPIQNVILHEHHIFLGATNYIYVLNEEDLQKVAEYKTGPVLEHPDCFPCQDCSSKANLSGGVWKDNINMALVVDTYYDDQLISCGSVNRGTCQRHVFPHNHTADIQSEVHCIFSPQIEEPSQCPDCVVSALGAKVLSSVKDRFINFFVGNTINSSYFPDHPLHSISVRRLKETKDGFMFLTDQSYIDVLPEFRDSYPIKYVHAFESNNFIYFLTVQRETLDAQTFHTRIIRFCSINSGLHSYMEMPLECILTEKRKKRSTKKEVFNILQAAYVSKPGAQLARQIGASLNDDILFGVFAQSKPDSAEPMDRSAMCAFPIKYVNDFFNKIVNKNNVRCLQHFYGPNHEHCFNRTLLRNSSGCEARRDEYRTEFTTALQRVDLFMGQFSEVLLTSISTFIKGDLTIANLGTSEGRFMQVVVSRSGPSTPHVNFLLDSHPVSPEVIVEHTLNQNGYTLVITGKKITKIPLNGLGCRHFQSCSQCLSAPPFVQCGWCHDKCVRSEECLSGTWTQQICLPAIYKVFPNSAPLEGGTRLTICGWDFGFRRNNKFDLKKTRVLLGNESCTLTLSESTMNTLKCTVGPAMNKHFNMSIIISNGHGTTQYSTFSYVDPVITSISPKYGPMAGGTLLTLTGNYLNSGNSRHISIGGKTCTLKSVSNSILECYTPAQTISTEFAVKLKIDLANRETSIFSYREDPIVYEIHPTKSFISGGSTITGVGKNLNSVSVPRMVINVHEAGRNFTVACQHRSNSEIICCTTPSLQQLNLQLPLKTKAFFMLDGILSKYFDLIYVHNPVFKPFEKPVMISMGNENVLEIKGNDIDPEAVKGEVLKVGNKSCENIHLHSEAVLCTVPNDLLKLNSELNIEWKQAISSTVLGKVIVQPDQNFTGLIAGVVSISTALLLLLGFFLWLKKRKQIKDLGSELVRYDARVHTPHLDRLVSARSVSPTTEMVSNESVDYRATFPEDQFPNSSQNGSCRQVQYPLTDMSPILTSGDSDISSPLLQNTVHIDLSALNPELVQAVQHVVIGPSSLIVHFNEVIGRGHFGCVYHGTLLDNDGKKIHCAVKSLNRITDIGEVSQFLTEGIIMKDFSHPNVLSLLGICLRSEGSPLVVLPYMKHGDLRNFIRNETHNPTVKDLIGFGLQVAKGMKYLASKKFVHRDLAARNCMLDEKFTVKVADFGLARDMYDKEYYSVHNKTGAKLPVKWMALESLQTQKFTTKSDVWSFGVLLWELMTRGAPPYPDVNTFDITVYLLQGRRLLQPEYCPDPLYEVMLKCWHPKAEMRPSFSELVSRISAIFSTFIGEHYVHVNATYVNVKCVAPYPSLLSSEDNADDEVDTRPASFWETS
Experimental for MOLM14 FLT3-ITD-D835Y: as §4
Mutagenesis is performed in FLT3-ITD MSCV plasmid using Q5 site-directed mutagenesis kit (E05545). […] Retroviral particles were produced by transiently transfecting HEK293T cells with Retroviral vectors together with packaging vectors, GPE and VSVG. 48 h after transfection, media containing viral particles were collected and filtered for infection. Viral particles were infected to MOLM14 cells and 48 h after infection, infected cells were selected with puromycin (1 μg/mL).
Text for MOLM14 Wild type: as §4
Experimental for MV4-11 xenograft: The drug or the control PBS was administered daily for a duration of 21 days. Tumor sizes were measured twice a week for 21 days, and the tumor volumes were calculated with the following formula: V (volume)=X (length)×D (width)2/2. After 21 days, the mice were sacrificed, and the tumor weights were measured.
An in vivo MV4-11 xenograft study was performed to determine the efficacy of the indirubin derivatives. MV4-11 cells were subcutaneously injected into BALB/c nu/nu mice, and tumors were allowed to grow to a size of approximately 100 mm^3.

For `COC(=O)c1ccc2c(c1)/C(=C1/Nc3ccccc3/C1=N\OCCN1CCNCC1)C(=O)N2.Cl.Cl` [Compound 4, Methyl (2Z,3E)-2′-oxo-3-((2-(piperazin-1-yl)ethoxy)imino)-[2,3′-biindolinylidene]-5′-carboxylate dihydrochloride], the IC50 came out at 0.25 ± 0.074 µM against cMET and 1 nM with MV4;11 cells (Homo sapiens, MV4-11, Table 1, 72 hours). For the same molecule, in the data set on MV4;11 xenograft (10 mg/kg i.v. daily, based on measured tumor volume), the “day from which the tumor disappeared” value came out at 3 days. In addition, the “body weight during the administration period” value in the data set on MV4;11 xenograft (5 or 10 mg/kg i.v., 21 days, between groups) is given as “no significant difference in body weight”. In addition, the “increase of activity against MV4;11 compared to Compound 1” value in the data set on MV4;11 cells stood at 40 fold. Further, the GI50 in the data set on MV4;11 cells (setting [2]) turned out to be 1 nM; in the data set with MV4;11 cells (Homo sapiens, MV4-11, Table 4, mean ± S.D., read-out: GI50 (μM) MV-4-11), 1.2 ± 0.15 nM; in the data set on PC-3 cells it was 1.1 ± 0.14 µM. The “difference in the IC50 between FLT3 and other kinases” value at FLT3 kinase was no less than 170 fold.
For the molecule `Cl.Cl.O=C1Nc2ccc(F)cc2/C1=C1/Nc2ccccc2/C1=N\OCCN1CCNCC1` [Compound 33, (2Z,3E)-5′-fluoro-3-((2-(piperazin-1-yl)ethoxy)imino)-[2,3′-biindolinylidene]-2′-one dihydrochloride], the GI50 in the data set with MDA-MB-231 was 117 nM; in the data set with MV4;11 cells (setting [2]), 1 nM; in the data set with MV4-11 cells (Table 6, read-out: GI50 value (μM) MV4-11) it was 0.001 ± 0.0003 µM; in the data set on MV4-11 cells (read-out: GI50 MV4-11 cells), 0.001 µM; with MOLM14 Wild type, 4.88 nM; with MOLM14 FLT3-ITD-D835Y it was 1.87 nM. The GI50 was 1.1 ± 0.2 µM with HepG2 (liver cancer) and 1.85 nM in data set [1]. Further, in the data set on MV4-11 xenograft (20 mg/kg oral once daily for 21 days), the “weight loss or other signs of toxicity during the administration period” value is on record as “no weight loss or any other signs of toxicity”. Further, the “day by which the tumor disappeared” value in the data set on MV4-11 xenograft (20 mg/kg oral once daily, based on measured tumor volume) is no more than 14 days. In addition, the “times more sensitive against MV4-11 cells than K562 cell line” value with MV4-11 cells turned out to be 430 times. Besides, the inhibition at 1 µM was determined as 40.7% with PC3 (prostate cancer), 2.05% with A549 (lung cancer), 16% with SK-OV-3 (ovarian cancer) and 38.5% in the data set on HCT-116 (colon cancer). Moreover, the “weights of the liver and the kidney” value with MDA-MB-231 xenograft is “no significant difference”.
